“And” between values parts separate entries of the source, which are not always exact repeats. Equal values may be shown once.
Experiments:
Format in all cases: cell-based, human
[1] = system: PIG1 cells; assay: Proliferation/cytotoxicity assay (sulphorhodamine B) on PIG1 melanocyte; conditions: PIG1, compared with dithranol
[2] = as above; conditions: human, PIG1 immortalized epidermal melanocyte cells; PIG1 melanocyte, incubation 72 h; read-out: IC50 on growth (cytotoxic effect)
[3] = system: Hs-68 cells; assay: Proliferation/cytotoxicity assay (sulphorhodamine B) on Hs-68 fibroblast; conditions: Hs-68, compared with dithranol
[4] = as above; conditions: human, Hs-68 foreskin fibroblast cells; Hs-68 fibroblast, incubation 72 h; read-out: IC50 on growth (cytotoxic effect)

| Compound | less cytotoxicity on melanocytes than dithranol [1] | IC50 at 72 h [2] | less cytotoxicity on fibroblasts than dithranol [3] | IC50 at 72 h [4] |
| --- | --- | --- | --- | --- |
| O=C(O)c1cc(O)c2ccccc2c1O [DHNA, 1,4-dihydroxy-2-naphthoic acid] | ~ 10 times | 24 µM and 4.9 µg/mL | ~ 8 times | 226 µM and 46.2 µg/mL |
| O=C1c2c(O)cccc2Cc2cccc(O)c21 [Dithranol, dithranol, reference compound] | – | 2.34 µM and 0.53 µg/mL | – | 27.4 µM and 6.2 µg/mL |

From paper PMC3638593, “1,4-dihydroxy-2-naphthoic Acid Induces Apoptosis in Human Keratinocyte: Potential Application for Psoriasis Treatment” (Evidence-based Complementary and Alternative Medicine : eCAM, 2013)
